Laboratory results: the NIST ThermoML archive (doi:10.1021/je901092b)
± gives the expanded uncertainty stated by the source.

Details: 101.33 kPa, Liquid; for mass density: Pycnometric method

CCCCn1cc[n+](C)c1.[I-] [1-butyl-3-methylimidazolium iodide]
Details	mass density [kg/m3]	viscosity [mPa·s]
299.15 K	1434 ± 10	593.68 ± 130
304.15 K	1432 ± 10	442.64 ± 89
308.15 K	1430 ± 10	336.95 ± 61
313.15 K	1426 ± 10	227.98 ± 34
318.15 K	1422 ± 10	173.86 ± 21
323.15 K	1418 ± 10	134.23 ± 14
328.15 K	1414 ± 10	105.34 ± 8.7
333.15 K	1406 ± 10	81.51 ± 5.3
338.15 K	1400 ± 10	65.85 ± 3.3
343.15 K	1398 ± 10	53.43 ± 2.2
348.15 K	1396 ± 10	44.68 ± 1.9
353.15 K	1394 ± 10	36.52 ± 1.6
358.15 K	1392 ± 10	30.4 ± 1.2
363.15 K	1388 ± 10	26.11 ± 0.98
368.15 K	1386 ± 10	22.5 ± 0.76
373.15 K	1382 ± 10	20.43 ± 0.64
378.15 K	1376 ± 10	18.1 ± 0.66
383.15 K	1370 ± 10	15.22 ± 0.61
388.15 K	1360 ± 10	13.11 ± 0.52

CCCCCCn1cc[n+](C)c1.[I-] [1-hexyl-3-methylimidazolium iodide]
Details	mass density [kg/m3]	viscosity [mPa·s]
305.15 K	1326 ± 10	809.79 ± 200
309.15 K	1324 ± 10	600.07 ± 140
314.15 K	1322 ± 10	432.98 ± 87
318.15 K	1320 ± 10	334.25 ± 59
323.15 K	1318 ± 10	245.55 ± 37
328.15 K	1316 ± 10	190.14 ± 24
333.15 K	1314 ± 10	146.47 ± 16
338.15 K	1312 ± 10	116.13 ± 10
343.15 K	1310 ± 10	88.04 ± 6.1
348.15 K	1308 ± 10	73.85 ± 3.8
353.15 K	1306 ± 10	60.63 ± 2.5
359.15 K	1304 ± 10	48.47 ± 2.1
363.15 K	1302 ± 10	42.23 ± 1.6
373.15 K	1298 ± 10	30.45 ± 1.2
378.15 K	1296 ± 10	26.62 ± 0.93
383.15 K	1294 ± 10	23.19 ± 0.82
388.15 K	1292 ± 10	20.3 ± 0.74

CCCCCCCC[n+]1ccn(C)c1.[I-] [1-methyl-3-octyl-1H-imidazolium iodide]
Details	mass density [kg/m3]	viscosity [mPa·s]
300.15 K	1258 ± 10	1306.3 ± 390
303.15 K	1254 ± 10	981.11 ± 260
308.15 K	1250 ± 10	726.71 ± 180
313.15 K	1246 ± 10	524.3 ± 110
319.15 K	1242 ± 10	404.37 ± 77
323.15 K	1240 ± 10	296.66 ± 50
328.15 K	1234 ± 10	229.09 ± 33
333.15 K	1230 ± 10	174.35 ± 21
338.15 K	1228 ± 10	138.53 ± 14
343.15 K	1224 ± 10	104.81 ± 8.5
348.15 K	1218 ± 10	89.02 ± 5.6
353.15 K	1212 ± 10	73.17 ± 4
358.15 K	1210 ± 10	58.41 ± 2.5
363.15 K	1206 ± 10	49.6 ± 1.9
368.15 K	1204 ± 10	43.21 ± 1.7
373.15 K	1200 ± 10	35.57 ± 1.4
378.15 K	1196 ± 10	31.43 ± 1.1
